Data reported in patent US12077759B2, “Compositions and methods for treating pathologic calcification” (Washington University, priority 2021, dated 2024).

Tested on: Wnt/β-catenin pathway
Test: Treatment of ACLp cells with Wnt agonist SKL2001 (rescue of osteogenesis)
Type: cell-based, human
Conditions: SKL2001 10 μM
Description: In short, 5×10^5 ACLp cells were first treated with KIF26B shRNA or scrambled shRNA for 48 hours and selected by Puromycin for another 48 hours. Afterward, 2×10^5 ACLp cells were seeded in a 12-well plate. Next osteogenesis was induced as above but in addition, SKL2001 (10 μM) dissolved in dimethyl sulfoxide (DMSO, Sigma-Aldrich) or DMSO only (vehicle) was added to cells. The medium was changed 3 times a week. After 7 days of osteogenic induction, the protein levels of active and total β-catenin were detected by Western blot as described above. After culture for 28 days, the Alizarin red staining was performed as above. After 28 days of osteogenic induction, RNA was isolated and expression of AXIN2 and WNT16 was measured using standard methods detailed above.

O=C(NCCCn1ccnc1)c1cc(-c2ccco2)on1 [SKL2001]
decrease of active β-catenin protein levels after KIF26B knockdown (Western blot) (ACLp cells transduced with KIF26B shRNA, 7 days of osteogenic induction): significantly attenuated | decrease in osteogenesis due to KIF26B loss-of-function (Alizarin red staining) (ACLp cells transduced with KIF26B shRNA, 28 days): reverted | AXIN2 mRNA expression (ACLp cells, 28 days of osteogenic induction, vehicle (DMSO) 1.00±0.02, p<0.001): 2.20±0.08 | WNT16 mRNA expression (ACLp cells, 28 days of osteogenic induction, vehicle (DMSO) 1.00±0.14, p<0.001): 3.06±0.13
